Experimental data as given in US11712416B2, “Solid oral pharmaceutical compositions for isoxazoline compounds” (Intervet Inc., priority 2012, dated 2023).
Converted amounts (≈) assume the structure as drawn. Where two headings read alike, the source gives them in different places.

Tests used:
[1] = Blood plasma pharmacokinetic profile of isoxazoline compounds in two chewable formulations after a single oral administration in dogs (Example 8); format: in vivo; settings: beagle dogs; for Cmax / Tmax / AUC(0-t): dog, plasma; for AUC(0-t): read-out: AUC(0-168h)
Excerpt: Pharmacokinetic Profile Following Oral Administration of Chewable Formulations of Isoxazoline Compounds
The objective of this study is to compare the blood plasma pharmacokinetic profile of three different isoxazoline compounds in two different chewable formulations after a single oral (PO) administration of in dogs.
The following compounds were formulated according to the invention. Specifically, the isoxazoline compound was first dissolved in a solvent, i.e. 2-pyrrolidone. This drug solution was then adsorbed onto the solid carrier, i.e. microcrystalline cellulose, which was incorporated into a solid oral dosage form as described in the specification with excipients as described in Table 3. Comparative example formulation ID No. 13-009, 13-011 and 13-013 contain the active drug substance incorporated as a solid that was manufactured as described in general in the specification without prior pre-dissolving the active ingredient and adsorption to the solid carrier.
The test compounds were administered orally to four beagle dogs per dose group for a total of twenty-four dogs.
Each animal was administered the tablet or chew by placing it in the back of the oral cavity over the tongue to initiate swallowing.
Plasma was obtained from the collected blood samples and analyzed for concentrations of the test compounds. Individual blood samples (approximately 4.5 mL per sample) were taken via jugular venipuncture into sodium-citrate tubes from all dogs for drug analysis. Blood samples were collected at the following time points: pretreatment (within 2 h prior to dosing) and approximately 1, 2, 4, 6, 8, 24, 48, 72 hours after dosing (15 min). A final blood sample was taken from each dog on Day 7 (2 h after the time of dosing on Day 0).
Pharmacokinetic analysis was performed on the plasma concentration data with the computer program Pharsight WinNonlin Enterprise, Version 4.0.1, or more recent update (Model 200: plasma data, extravascular input).

[2] = Solubility of the active (fluralaner) in formulation solvents; format: physicochemical; settings: organic solvent or mixture
[3] = single oral dose 10 mg/kg, Alternate Chew (compound dissolved in 2-pyrrolidone)
[4] = single oral dose 25 mg/kg, Control Chew (compound not dissolved)

Row | solubility ([2]; 2-pyrrolidone (2-pyrol), solvent 2-pyrrolidone, read-out: solubility in 2-pyrrolidone (2-pyrol)) [mg/mL] | solubility ([2]; dimethylacetamide (DMAC), solvent DMAC, read-out: solubility in dimethylacetamide (DMAC)) [mg/mL] | Structure (SMILES) | Cmax/Dose [1, 3] [kg·ng/mL/mg] | Cmax/Dose [1, 4] [kg·ng/mL/mg] | Cmax [1, 3] [ng/mL] | Cmax [1, 4] [ng/mL] | AUC(0-168h)/Dose [1, 3] [kg·ng·h/mL/mg] | AUC(0-168h)/Dose [1, 4] [kg·ng·h/mL/mg] | Tmax [1, 3] [h] | AUC(0-t) [1, 3] [µg·h/mL] | Tmax [1, 4] [h] | AUC(0-t) [1, 4] [µg·h/mL]
1 |  |  | Cc1cc(C2=NOC(c3cc(Cl)cc(Cl)c3)(C(F)(F)F)C2)ccc1C(=O)NC1CSC1 (centres unmarked) [Compound A] | 1.71 | 0.768 | 17.1 | 19.2 |  |  |  |  |  | 
2 |  |  | Cc1cc(C2=NOC(c3cc(Cl)cc(Cl)c3)(C(F)(F)F)C2)sc1C(=O)NCC(=O)NCC(F)(F)F (centres unmarked) [Compound C] | 254 | 63.5 | 2540 | 1590 | 32660 | 6573 | 15.5 | 327 | 27.5 | 164
3 |  |  | O=C(CNC(=O)c1ccc(C2=NOC(c3cc(Cl)cc(C(F)(F)F)c3)(C(F)(F)F)C2)c2ccccc12)NCC(F)(F)F (centres unmarked) [Compound B] | 321 | 174 | 3210 | 4340 | 33416 | 16661 | 15.5 | 334 | 5 | 417
4 | 775 (≈ 1390 mM) | 792 (≈ 1420 mM) | Cc1cc(C2=NOC(c3cc(Cl)cc(Cl)c3)(C(F)(F)F)C2)ccc1C(=O)NCC(=O)NCC(F)(F)F (centres unmarked) [Compound A-1443, 4-[5-(3,5-Dichlorophenyl)-5-trifluoromethyl-4,5-dihydroisoxazol-3-yl]-2-methyl-N-[(2,2,2-trifluoro-ethylcarbamoyl)-methyl]-benzamide] |  |  |  |  |  |  |  |  |  | 
